Experimental data published in US4396550A, “Dibenz [b,e] oxepin derivatives” (Kyowa Hakko Kogyo Co., Ltd., priority 1980, dated 1983).

Legend:
male dd-strain rats = experiment: Acute toxicity test (minimum lethal dose); assay type: in vivo; conditions: mortality for 7 days
Procedure: Groups of male dd-strain rats (each group consisting of five rats) weighing 20±1 g were used. The compounds of the present invention were administered orally (po: 0.3 mg/g) or intraperitoneally (ip: 0.1 mg/g). The MLD (minimum lethal dose) was calculated from the mortality for 7 days after the administration to obtain the results given in Table 1.

[1] = system: isolated ileum of guinea-pig; experiment: Test for antihistaminergic effects on the isolated ileum of guinea-pig (histamine contraction, in vitro); set-up: species or system guinea-pig (male Hartly-strain); conditions: Cavia porcellus, 0.05 h; depressing ratio of 80% or more of histamine contraction; read-out: Antihistaminergic activity: MED
Procedure: (§1) Male Hartly-strain guinea-pigs weighing about 250 g are killed and the abdomen is opened. The part (2-3 cm in length) of the ileum 10 cm away from the caecum to the pylorus is cut off as a preparation. The preparation is suspended with serre-fine in a Magnus bath containing 10 ml of Tyrode's solution at 32±1° C. under an air bubble. The contraction of the ileum is recorded on Kymograph through hebel when 0.1 ml of acetylcholine at a concentration of 10^-3 g/ml is added to the Tyrode's solution.
(§2) On the other hand, 3 minutes after administration of the test compounds, the same procedure as mentioned above is carried out to record the contraction.
In this test, 0.1 ml of histamine at a concentration of 5×10^-3 g/l is used.

[2] = system: blood platelets (platelet-rich plasma); experiment: Test for the inhibition of platelet aggregation (collagen-induced, platelet-rich plasma); assay type: cell-based, male white rabbits; conditions: Oryctolagus cuniculus, Platelet, 0.05 h; depressing ratio of 50% of collagen-induced aggregation; compound 3 minutes before; read-out: Antiplatelet aggregation activity: MED
Procedure: In this test, 9 vols. of blood are sampled from the caroted artery of male white rabbits weighing 2 to 2.5 kg and placed in a silicon-coated flask containing 1 vol. of 3.8% sodium citrate. The thus obtained blood is centrifuged at 1,000 rpm for 15 minutes to obtain platelet-rich plasma. The aggregation of the blood platelets is observed using an aggregometer, when collagen is added to the platelet-rich plasma to the extent of the final concentration that 50% of platelet aggregation is caused in the presence of 100 γ/ml of aspirin. On the other hand, 3 minutes after administration of the test compounds to the platelet-rich plasma, the same procedure as mentioned above is carried out to observe the aggregation of blood platelet. The test compounds showing a depressing ratio of 50%, compared with the inhibition of aggregation by collagen alone, are concluded to have antiplatelet aggregation activity.

Antiasthmatic activity = assay type: in vivo; conditions: po; read-out: Antiasthmatic activity: MED
[3] = system: isolated ileum of guinea-pig; experiment: Test for anticholinergic effects on the isolated ileum of guinea-pig (acetylcholine contraction, in vitro); set-up: species or system guinea-pig (male Hartly-strain); conditions: Cavia porcellus, 0.05 h; depressing ratio of 80% or more of acetylcholine contraction; compound 3 minutes before; read-out: Anticholinergic activity: MED (minimum effective dose)
Procedure: as §1, §2

Row | Compound | Acute toxicity: MLD (minimum lethal dose) (male dd-strain rats; ip) [mg/kg] | Acute toxicity: MLD (minimum lethal dose) (male dd-strain rats; po) [mg/kg] | minimal effective concentration [1] [µg/mL] | minimal effective concentration [2] [µg/mL] | minimal effective dose (Antiasthmatic activity) [mg/kg] | minimal effective concentration [3] [µg/mL]
1 | Cc1ccc2c(c1)C(NCCN1CCOCC1)c1ccccc1CO2 (centres unmarked) [Compound 59, 2-methyl-11-(2-morpholinoethyl)amino-6,11-dihydrodibenz[b,e]oxepin] | > 100 | 200 | 10 | 100 | 100 | –
2 | CCN(CC)CCNC1c2ccccc2COc2ccc(Cl)cc21 (centres unmarked) [Compound 10, 2-chloro-11-{2-(diethylamino)ethyl}amino-6,11-dihydrodibenz[b,e]oxepin] | > 100 | > 300 | – | 2 | 100 | –
3 | CCc1ccc2c(c1)C(NCCCN(CC)CC)c1ccccc1CO2 (centres unmarked) [Compound 2, 2-ethyl-11-{3-(diethylamino)propyl}amino-6,11-dihydrodibenz[b,e]oxepin] | 100 | 300 | 1 | 1 | – | 10
4 | CCc1ccc2c(c1)C(NC1CC(C)(C)NC(C)(C)C1)c1ccccc1CO2 (centres unmarked) [Compound 63, 2-ethyl-11-{4-(2,2,6,6-tetramethyl)piperidinyl}amino-6,11-dihydrodibenz[b,e]oxepin] | 100 | 200 | 3 | 10 | – | 3
5 | CCN(CC)CCCNC1c2ccccc2COc2ccc(F)cc21 (centres unmarked) [Compound 3, 2-fluoro-11-{3-(diethylamino)propyl}amino-6,11-dihydrodibenz[b,e]oxepin] | > 100 | > 300 | 10 | 20 | – | 10
6 | c1ccc(-c2ccc3c(c2)C(NC2CN4CCC2CC4)c2ccccc2CO3)cc1 (centres unmarked) [Compound 55, 2-phenyl-11-(3-quinuclidinyl)amino-6,11-dihydrodibenz[b,e]oxepin] | > 100 | > 300 | 1 | 20 | – | 3
7 | CN1CCN(C2c3ccccc3COc3c(-c4ccccc4)cccc32)CC1 (centres unmarked) [Compound 47, 4-phenyl-11-(4-methyl-1-piperazinyl)-6,11-dihydrodibenz[b,e]oxepin] | 100 | 200 | 10 | 10 | – | 3
8 | CCc1ccc2c(c1)C(N1CCN(CCN)CC1)c1ccccc1CO2 (centres unmarked) [Compound 45, 2-ethyl-11-{4-(2-aminoethyl)-1-piperazinyl}-6,11-dihydrodibenz[b,e]oxepin] | 100 | > 300 | 10 | 100 | – | 10
9 | c1ccc(-c2cccc3c2OCc2ccccc2C3NC2CN3CCC2CC3)cc1 (centres unmarked) [Compound 57, 4-phenyl-11-(3-quinuclidinyl)amino-6,11-dihydrodibenz[b,e]oxepin] | 100 | > 300 | 3 | 10 | – | 3
10 | CN(C)CCCNC1c2ccccc2COc2ccc(Cl)cc21 (centres unmarked) [Compound 50, 2-chloro-11-{3-(dimethylamino)propyl}amino-6,11-dihydrodibenz[b,e]oxepin] | > 100 | 200 | 3 | 50 | – | 10
11 | CN(C)CCCNC1c2ccccc2COc2ccc(F)cc21 (centres unmarked) [Compound 49, 2-fluoro-11-{3-(dimethylamino)propyl}amino-6,11-dihydrodibenz[b,e]oxepin] | > 100 | > 300 | 1 | 50 | – | 3
12 | Cc1ccc2c(c1)C(N1CCN(CCO)CC1)c1ccccc1CO2 (centres unmarked) [Compound 37, 2-methyl-11-{4-(2-hydroxyethyl)-1-piperazinyl}-6,11-dihydrodibenz[b,e]oxepin] | > 100 | > 300 | 10 | 50 | – | 10
13 | CCc1ccc2c(c1)C(NCCCN(C)C)c1ccccc1CO2 (centres unmarked) [Compound 15, 2-ethyl-11-{3-(dimethylamino)propyl}amino-6,11-dihydrodibenz[b,e]oxepin] | > 100 | > 300 | 3 | 20 | – | 3
14 | CCN(CC)CCNC1c2ccccc2COc2ccc(C3CCCCC3)cc21 (centres unmarked) [Compound 48, 2-cyclohexyl-11-{2-(diethylamino)ethyl}amino-6,11-dihydrodibenz[b,e]oxepin] | 100 | > 300 | 3 | 100 | – | 3
15 | Cc1ccc2c(c1)C(NCCc1ccccn1)c1ccccc1CO2 (centres unmarked) [Compound 36, 2-methyl-11-{2-(2-pyridyl)ethyl}amino-6,11-dihydrodibenz[b,e]oxepin] | 100 | 200 | 3 | 100 | – | 10
16 | CCN(CC)CCCNC1c2ccccc2COc2ccc(C)cc21 (centres unmarked) [Compound 4, 2-methyl-11-{3-(diethylamino)propyl}amino-6,11-dihydrodibenz[b,e]oxepin] | 100 | 300 | 10 | 20 | – | 10
17 | CCC(C)(C)c1ccc2c(c1)C(NC1CN3CCC1CC3)c1ccccc1CO2 (centres unmarked) [Compound 53, 2-(1,1-dimethyl)propyl-11-(3-quinuclidinyl)amino-6,11-dihydrodibenz[b,e]oxepin] | 50 | > 300 | 1 | – | 50 | 10
18 | OCCN1CCN(C2c3ccccc3COc3ccc(Cl)cc32)CC1 (centres unmarked) [Compound 40, 2-chloro-11-{4-(2-hydroxyethyl)-1-piperazinyl}-6,11-dihydrodibenz[b,e]oxepin] | > 100 | > 300 | 3 | 100 | 50 | –
